Experimental data: US20060069132A1, “Azolecarboxamide herbicides” (priority 2004, published 2006)
Read-outs that look alike come from different tables or passages of the source.

Legend:
soybean = assay: Test C pre-/postemergence herbicide test; assay type: in vivo, Glycine max
Procedure, shortened: (§1)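 Visual ratings on a 0–100 scale (100 = complete control) made versus untreated controls after 12 to 14 greenhouse days. Test chemicals, formulated in surfactant-containing non-phytotoxic solvent, applied preemergence to planted seeds or postemergence to 1- to 4-leaf plants (2 to 18 cm).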

corn = assay: Test C pre-/postemergence herbicide test; assay type: in vivo, Zea mays
Procedure, shortened: as §1

kochia = assay: Test C pre-/postemergence herbicide test; assay type: in vivo, Kochia scoparia
Procedure, shortened: as §1

redroot pigweed = assay: Test A pre-/postemergence herbicide test; assay type: in vivo, Amaranthus retroflexus; settings: Amaranthus retroflexus, 240 h; for pest or weed control at 500 g/ha: 500 g ai/ha; for pest or weed control at 2000 g/ha: 2000 g ai/ha
Procedure, shortened: (§2)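 Visual injury scores on a 0–100 scale (100 = complete control) taken about ten days post-treatment in greenhouse against untreated controls; dash means no result. Treatments: preemergence soil spray and postemergence spray to runoff on one- to two-leaf plants 2 to 10 cm tall, surfactant-containing formulation.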

goosegrass = assay: Test C pre-/postemergence herbicide test; assay type: in vivo, Eleusine indica
Procedure, shortened: as §1

morningglory = assay: Test C pre-/postemergence herbicide test; assay type: in vivo, Ipomoea coccinea
Procedure, shortened: as §1

bermudagrass = assay: Test C pre-/postemergence herbicide test; assay type: in vivo, Cynodon dactylon
Procedure, shortened: as §1

barnyardgrass = assay: Test C flooded paddy test; assay type: in vivo, Echinochloa crus-galli; settings: Echinochloa crus-galli
Procedure, shortened: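 Weeds and wheat were sprayed after emergence, at a height of 2 to 18 cm (1–4 leaves), and paddy barnyardgrass was flooded and treated at two leaves. Assessment took place 12–14 days later in the greenhouse on a 0-to-100 visual control scale. A dash means no result was obtained.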

giant foxtail = assay: Test C pre-/postemergence herbicide test; assay type: in vivo, Setaria faberi
Procedure, shortened: as §1

velvetleaf [1] = assay: Test C pre-/postemergence herbicide test; assay type: in vivo, Abutilon theophrasti
Procedure, shortened: as §1

velvetleaf [2] = assay: Test A pre-/postemergence herbicide test; assay type: in vivo, Abutilon theophrasti; settings: Abutilon theophrasti, 240 h; for pest or weed control at 500 g/ha: 500 g ai/ha; for pest or weed control at 2000 g/ha: 2000 g ai/ha
Procedure, shortened: as §2

yellow nutsedge = assay: Test C pre-/postemergence herbicide test; assay type: in vivo, Cyperus esculentus
Procedure, shortened: as §1

woolly cupgrass = assay: Test C pre-/postemergence herbicide test; assay type: in vivo, Eriochloa villosa
Procedure, shortened: as §1

cocklebur = assay: Test C pre-/postemergence herbicide test; assay type: in vivo, Xanthium strumarium
Procedure, shortened: as §1

[3] = Preemergence, 500 g ai/ha, scale 0 to 100, 0 no effect, 100 complete control
[4] = post-emergence, Postemergence, 0 to 100 scale, 0 no effect, 100 complete control, read-out: Plant response rating, Pigweed
[5] = post-emergence, Postemergence, 0 to 100 scale, 0 no effect, 100 complete control, read-out: Plant response rating, Velvetleaf

Compound: CCNC(=O)c1ccc(F)c(NC(=O)c2cc(C(C)(C)C)nn2CC)c1 [Compound 2, 3-(1,1-dimethylethyl)-1-ethyl-N-[5-[(ethylamino)carbonyl]-2-fluorophenyl]-1H-pyrazole-5-carboxamide]
- Plant response rating (0 = no effect, 100 = complete control), Soybean (soybean; 62 g ai/ha, preemergence): 30
- plant injury at 250 g/ha (soybean; Glycine max, pre-emergence, 250 g ai/ha, scale 0 to 100 (0 no effect, 100 complete control), visual, 12 to 14 days, read-out: Plant response rating, Soybean): 100%
- Soybean plant response rating (soybean; [3]): 100
- Plant response rating (0 = no effect, 100 = complete control), Corn (corn; 62 g ai/ha, preemergence): 0
- Corn plant response rating (corn; [3]): 60
- Corn plant response rating (crop injury, 0 = no effect, 100 = complete kill) at 125 g/ha (corn; Zea mays, pre-emergence, 312 h, 125 g ai/ha, scale 0-100): 30%
- Corn plant response rating (crop injury, 0 = no effect, 100 = complete kill) at 250 g/ha (corn; Zea mays, pre-emergence, 312 h, 250 g ai/ha, scale 0 to 100 (0 no effect, 100 complete control), visual, 12 to 14 days): 35%
- Plant response rating (0 = no effect, 100 = complete control), Kochia (kochia; 62 g ai/ha, preemergence): 100
- pest or weed control at 125 g/ha (kochia; Bassia scoparia, pre-emergence, 125 g ai/ha, scale 0-100, read-out: Plant response rating, Kochia): 100%
- pest or weed control at 250 g/ha (kochia; Bassia scoparia, pre-emergence, 250 g ai/ha, scale 0 to 100 (0 no effect, 100 complete control), visual, 12 to 14 days, read-out: Plant response rating, Kochia): 100%
- Kochia plant response rating (kochia; [3]): 100
- pest or weed control at 500 g/ha (redroot pigweed; [4]): 100%
- pest or weed control at 2000 g/ha (redroot pigweed; [4]): 100%
- pest or weed control at 500 g/ha (redroot pigweed; pre-emergence, Preemergence, visual rating, 0 to 100 scale (0 no effect, 100 complete control), read-out: Pigweed plant response rating): 100%
- pest or weed control at 2000 g/ha (redroot pigweed; pre-emergence, Preemergence, 0 to 100 scale, 0 no effect, 100 complete control, read-out: Pigweed plant response rating): 100%
- Plant response rating (0 = no effect, 100 = complete control), Goosegrass (goosegrass; 62 g ai/ha, preemergence): 90
- pest or weed control at 125 g/ha (goosegrass; Eleusine indica, pre-emergence, 312 h, 125 g ai/ha, scale 0-100, read-out: Plant response rating, Goosegrass): 95%
- pest or weed control at 250 g/ha (goosegrass; Eleusine indica, pre-emergence, 312 h, 250 g ai/ha, scale 0 to 100 (0 no effect, 100 complete control), visual, 12 to 14 days, read-out: Plant response rating, Goosegrass): 95%
- Goosegrass plant response rating (goosegrass; [3]): 100
- Plant response rating (0 = no effect, 100 = complete control), Morningglory (morningglory; 62 g ai/ha, preemergence): 5
- pest or weed control at 250 g/ha (morningglory; Ipomoea, pre-emergence, 250 g ai/ha, scale 0 to 100 (0 no effect, 100 complete control), visual, 12 to 14 days, read-out: Plant response rating, Morningglory): 45%
- Morningglory plant response rating (morningglory; [3]): 100
- Plant response rating (0 = no effect, 100 = complete control), Bermudagrass (bermudagrass; 62 g ai/ha, preemergence): 85
- pest or weed control at 125 g/ha (bermudagrass; Cynodon dactylon, pre-emergence, 312 h, 125 g ai/ha, scale 0-100, read-out: Plant response rating, Bermudagrass): 90%
- pest or weed control at 250 g/ha (bermudagrass; Cynodon dactylon, pre-emergence, 312 h, 250 g ai/ha, scale 0 to 100 (0 no effect, 100 complete control), visual, 12 to 14 days, read-out: Plant response rating, Bermudagrass): 95%
- pest or weed control at 500 g/ha (bermudagrass; Cynodon dactylon, pre-emergence, 312 h, Preemergence, 500 g ai/ha, scale 0 to 100, 0 no effect, 100 complete control, read-out: Bermudagrass plant response rating): 95%
- pest or weed control at 62 g/ha (barnyardgrass; 62 g ai/ha, scale 0 to 100 (0 no effect, 100 complete control), read-out: Barnyardgrass plant response rating): 15%
- pest or weed control at 125 g/ha (barnyardgrass; 125 g ai/ha, scale of 0 to 100, 0 is no effect, 100 is complete control, read-out: Barnyardgrass plant response rating): 75%
- pest or weed control at 250 g/ha (barnyardgrass; 250 g ai/ha, visual rating after 12 to 14 days, scale 0 to 100 (0 no effect, 100 complete control), read-out: Plant response rating, Barnyardgrass): 75%
- pest or weed control at 500 g/ha (barnyardgrass; 500 g ai/ha, visual rating after 12 to 14 days, scale 0 to 100 (0 no effect, 100 complete control), read-out: Plant response rating, Barnyardgrass): 90%
- Plant response rating (0 = no effect, 100 = complete control), Foxtail, Giant (giant foxtail; 62 g ai/ha, preemergence): 80
- Foxtail, Giant plant response rating (giant foxtail; [3]): 100
- pest or weed control at 125 g/ha (giant foxtail; Setaria faberi, pre-emergence, 312 h, 125 g ai/ha, scale 0-100, read-out: Plant response rating, Foxtail, Giant): 100%
- pest or weed control at 250 g/ha (giant foxtail; Setaria faberi, pre-emergence, 312 h, 250 g ai/ha, scale 0 to 100 (0 no effect, 100 complete control), visual, 12 to 14 days, read-out: Plant response rating, Foxtail, Giant): 100%
- Plant response rating (0 = no effect, 100 = complete control), Velvetleaf (velvetleaf [1]; 62 g ai/ha, preemergence): 60
- pest or weed control at 250 g/ha (velvetleaf [1]; Abutilon theophrasti, pre-emergence, 250 g ai/ha, scale 0 to 100 (0 no effect, 100 complete control), visual, 12 to 14 days, read-out: Plant response rating, Velvetleaf): 100%
- Velvetleaf plant response rating (velvetleaf [1]; [3]): 100
- pest or weed control at 500 g/ha (velvetleaf [2]; [5]): 40%
- pest or weed control at 2000 g/ha (velvetleaf [2]; [5]): 75%
- pest or weed control at 500 g/ha (velvetleaf [2]; pre-emergence, Preemergence, visual rating, 0 to 100 scale (0 no effect, 100 complete control), read-out: Velvetleaf plant response rating): 100%
- pest or weed control at 2000 g/ha (velvetleaf [2]; pre-emergence, Preemergence, 0 to 100 scale, 0 no effect, 100 complete control, read-out: Velvetleaf plant response rating): 100%
- Plant response rating (0 = no effect, 100 = complete control), Nutsedge, Yellow (yellow nutsedge; 62 g ai/ha, preemergence): 30
- pest or weed control at 250 g/ha (yellow nutsedge; Cyperus, pre-emergence, 250 g ai/ha, scale 0 to 100 (0 no effect, 100 complete control), visual, 12 to 14 days, read-out: Plant response rating, Nutsedge, Yellow): 90%
- Plant response rating (0 = no effect, 100 = complete control), Cupgrass, Woolly (woolly cupgrass; 62 g ai/ha, preemergence): 40
- pest or weed control at 125 g/ha (woolly cupgrass; Eriochloa villosa, pre-emergence, 312 h, 125 g ai/ha, scale 0-100, read-out: Plant response rating, Cupgrass, Woolly): 60%
- pest or weed control at 250 g/ha (woolly cupgrass; Eriochloa villosa, pre-emergence, 312 h, 250 g ai/ha, scale 0 to 100 (0 no effect, 100 complete control), visual, 12 to 14 days, read-out: Plant response rating, Cupgrass, Woolly): 60%
- Cupgrass, Woolly plant response rating (woolly cupgrass; [3]): 80
- Plant response rating (0 = no effect, 100 = complete control), Cocklebur (cocklebur; 62 g ai/ha, preemergence): 5
- pest or weed control at 125 g/ha (cocklebur; Xanthium strumarium, pre-emergence, 312 h, 125 g ai/ha, scale 0-100, read-out: Plant response rating, Cocklebur): 5%
- pest or weed control at 250 g/ha (cocklebur; Xanthium strumarium, pre-emergence, 312 h, 250 g ai/ha, scale 0 to 100 (0 no effect, 100 complete control), visual, 12 to 14 days, read-out: Plant response rating, Cocklebur): 65%
- pest or weed control at 500 g/ha (cocklebur; Xanthium strumarium, pre-emergence, 312 h, Preemergence, 500 g ai/ha, scale 0 to 100, 0 no effect, 100 complete control, read-out: Cocklebur plant response rating): 80%
